Laboratory results taken from patent US20110072525A1, “COMPOSITIONS AND METHODS FOR THE TREATMENT OF PSYCHIATRIC AND NEUROLOGICAL DISORDERS” (priority 2009, published 2011).

Test system: wild type C57BL6 mice
Test: Prepulse inhibition (PPI) of the acoustic startle response, control experiment
Assay type: in vivo
Conditions: wild type C57BL6 mice injected with MK-801 1 mg/kg; same PPI protocol; data not shown
Method: Prepulse inhibition (PPI) of the acoustic startle response. Prepulse inhibition (PPI) of the acoustic startle response was measured as described previously with some minor modifications (E. S. Emamian et al., 2004b). Adult homozygous mutant mice and their wild-type littermates were housed individually for 2 weeks prior to testing. Testing was conducted in a SR-Lab system (San Diego Instruments). Response amplitude was calculated as the maximum response level occurred during the 100 ms recording. Because animals can habituate to the prepulse, and to the startle stimulus, the number of trials was kept to minimum. Immediately after being placed in the chamber, the animal was allowed to acclimate for 5 min which background noise (86 dB) continually present. The animal then received 10 sets of the following 5 types of trials, distributed pseudo-randomly, and separated by 15 sec inter-trial intervals: Trial 1: 40 ms, 120 dB noise burst alone; Trial 2-4: 120 dB startle stimuli preceded 100 ms by one of the three 20 ms prepulses: 90 dB, 94 dB or 98 dB; Trial 5: no-stimulus/background noise alone (86 dB). […] Data was analyzed using ANOVA with repeated measures.

## C[C@]12N[C@H](Cc3ccccc31)c1ccccc12 [MK-801]
  Prepulse inhibition (PPI) of the acoustic startle response: significant decrease in PPI
